# In PubChem BioAssay (NCI):
#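 All cell lines were grown in 96-well plates and treated with compound for 48 hours. Abbreviation: GI50, concentration required for 50% inhibition of growth. TGI: total growth inhibition.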
# Experiments:
# Assay in all cases: growth of human tumour cells (NCI), 48 h
# [1] = test system: HT29 colon
# [2] = test system: ACHN renal
# [3] = test system: U251 CNS
# [4] = test system: DU-145 prostate
# [5] = test system: HOP-62 NSCLC
# [6] = test system: SK-MEL-28 melanoma
# [7] = test system: M14 melanoma
# [8] = test system: IGROV1 ovarian
# [9] = test system: NCI-H23 lung
# [10] = test system: BT-549 breast
# [11] = test system: HCT-116 colon
# [12] = test system: EKVX NSCLC
# [13] = test system: NCI-H460 lung
# [14] = test system: SN12C renal
# [15] = test system: SK-MEL-5 melanoma
# [16] = test system: SF-268 CNS
# [17] = test system: MCF7 breast
# [18] = test system: RXF 393 renal
# [19] = test system: MDA-MB-231 breast
# [20] = test system: UACC-257 melanoma
# [21] = test system: SR leukemia
# [22] = test system: HCT-15 colon
# [23] = test system: SK-MEL-2 melanoma
# [24] = test system: A549 NSCLC
# [25] = test system: OVCAR-4 ovarian
# [26] = test system: OVCAR-3 ovarian
# [27] = test system: COLO 205 colon
# [28] = test system: SNB-75 CNS
# [29] = test system: HS 578T breast
# [30] = test system: OVCAR-8 ovarian
# [31] = test system: SNB-19 CNS
# [32] = test system: SF-539 CNS
# [33] = test system: NCI-H522 lung
# [34] = test system: SW-620 colon
# [35] = test system: SF-295 CNS
# [36] = test system: NCI/ADR-RES ovarian
# [37] = test system: MOLT-4 leukemia
# [38] = test system: HCC-2998 colon
# [39] = test system: TK-10 renal
# [40] = test system: CCRF-CEM leukemia
# [41] = test system: MDA-MB-435
# [42] = test system: SK-OV-3 ovarian
# [43] = test system: K-562 leukemia
# [44] = test system: NCI-H226 lung
# [45] = test system: T-47D breast
# [46] = test system: OVCAR-5 ovarian
# [47] = test system: 786-0 renal
# [48] = test system: MALME-3M melanoma
# [49] = test system: RPMI-8226 leukemia
# [50] = test system: UO-31 renal
# [51] = test system: CAKI-1 renal
# [52] = test system: KM12 colon
# [53] = test system: A498 renal
# [54] = test system: LOX IMVI melanoma
# [55] = test system: HL-60(TB) leukemia
# [56] = test system: UACC-62 melanoma
smiles,measurement,setting,value
CCCCNC(=O)Oc1ccc2c(=O)c3sc4c(=O)c5ccccc5c(=O)c4c3c(=O)c2c1,GI50,[1],2310 nM
same,TGI,[1],5.6 µM
same,GI50,[2],874 nM
same,TGI,[2],2180 nM
same,GI50,[3],1020 nM
same,TGI,[3],2260 nM
same,GI50,[4],158 nM
same,TGI,[4],294 nM
same,GI50,[5],144 nM
same,TGI,[5],277 nM
same,GI50,[6],224 nM
same,TGI,[6],524 nM
same,GI50,[7],97.6 nM
same,TGI,[7],225 nM
same,GI50,[8],2230 nM
same,TGI,[8],6.72 µM
same,GI50,[9],188 nM
same,TGI,[9],583 nM
same,GI50,[10],154 nM
same,TGI,[10],293 nM
same,GI50,[11],334 nM
same,TGI,[11],1760 nM
same,GI50,[12],1380 nM
same,TGI,[12],3.57 µM
same,GI50,[13],195 nM
same,TGI,[13],395 nM
same,GI50,[14],174 nM
same,TGI,[14],350 nM
same,GI50,[15],103 nM
same,TGI,[15],224 nM
same,GI50,[16],1100 nM
same,TGI,[16],3.56 µM
same,GI50,[17],429 nM
same,TGI,[17],2180 nM
same,GI50,[18],1200 nM
same,TGI,[18],2540 nM
same,GI50,[19],1390 nM
same,TGI,[19],5.91 µM
same,GI50,[20],237 nM
same,TGI,[20],700 nM
same,GI50,[21],770 nM
same,TGI,[21],> 100 µM
same,GI50,[22],160 nM
same,TGI,[22],360 nM
same,GI50,[23],1370 nM
same,TGI,[23],3.3 µM
same,GI50,[24],209 nM
same,TGI,[24],481 nM
same,GI50,[25],977 nM
same,TGI,[25],2150 nM
same,GI50,[26],299 nM
same,TGI,[26],977 nM
same,GI50,[27],1810 nM
same,TGI,[27],3.5 µM
same,GI50,[28],189 nM
same,TGI,[28],421 nM
same,GI50,[29],279 nM
same,TGI,[29],860 nM
same,GI50,[30],1440 nM
same,TGI,[30],4.76 µM
same,GI50,[31],287 nM
same,TGI,[31],1050 nM
same,GI50,[32],235 nM
same,TGI,[32],767 nM
same,GI50,[33],379 nM
same,TGI,[33],1640 nM
same,GI50,[34],409 nM
same,TGI,[34],1580 nM
same,GI50,[35],176 nM
same,TGI,[35],373 nM
same,GI50,[36],1580 nM
same,TGI,[36],8.43 µM
same,GI50,[37],2170 nM
same,TGI,[37],6.57 µM
same,GI50,[38],511 nM
same,TGI,[38],2010 nM
same,GI50,[39],2190 nM
same,TGI,[39],3.78 µM
same,GI50,[40],2000 nM
same,TGI,[40],6.83 µM
same,GI50,[41],172 nM
same,TGI,[41],328 nM
same,GI50,[42],1400 nM
same,TGI,[42],2800 nM
same,GI50,[43],937 nM
same,TGI,[43],11.5 µM
same,GI50,[44],1120 nM
same,TGI,[44],2470 nM
same,GI50,[45],2110 nM
same,TGI,[45],5.4 µM
same,GI50,[46],2020 nM
same,TGI,[46],4.55 µM
same,GI50,[47],1770 nM
same,TGI,[47],4.23 µM
same,GI50,[48],117 nM
same,TGI,[48],273 nM
same,GI50,[49],1160 nM
same,TGI,[49],4.42 µM
same,GI50,[50],699 nM
same,TGI,[50],2660 nM
same,GI50,[51],1240 nM
same,TGI,[51],2860 nM
same,GI50,[52],2000 nM
same,TGI,[52],9.21 µM
same,GI50,[53],1040 nM
same,TGI,[53],2220 nM
same,GI50,[54],327 nM
same,TGI,[54],1750 nM
same,GI50,[55],3.11 µM
same,TGI,[55],> 100 µM
same,GI50,[56],170 nM
same,TGI,[56],336 nM
